We go through 19 compounds from patent publication US7923465B2, “Cannabinoid receptor ligands, pharmaceutical compositions containing them, and process for their preparation” (priority 2005, dated 2011).

One data set addresses CB1 (Rattus norvegicus, UniProt P20272). The data set can be described thus: Rat CB1 receptor binding using brain membrane, [3H]SR141716A displacement (Protocol I). The following applies: 1 h. Details: CB1 receptor present in a rat brain membrane preparation; from tissue; host or cells: rat brain membrane; inhibition: dose or concentration left out as unconfirmed. Here is the method:
I. In Vitro Protocol for Rat CB1 Receptor Binding Using Brain Membrane
In this assay, [^3H]SR141716A (5-(4-chlorophenyl)-1-(2,4-dichlorophenyl)-4-methyl-N-(1-piperidyl)pyrazole-3-carboxamide) was used to bind the CB1 receptor present in a rat brain membrane preparation which can be displaced by unlabeled ligands having affinity to the CB1 receptor.
The assay was performed according to the modified method of Thomas et al., 1998 (JPET 285: 285-292). The total reaction mixture ([…]) contained Tris-BSA buffer (50 mM Tris, pH 7.4 with 1.5% BSA) or unlabeled SR141716A […] or test samples […], [^3H] SR141716A (2 nM) and […] of rat brain membrane. The non-specific binding was defined by […] of SR141716A. The assay mixture was incubated at 37° C. for 1 hour. The reaction was then stopped by rapid filtration under vacuum using Whatman GF/B-96 micro filter plate. A scintillation cocktail was added and radioactive counts were measured using a Topcount beta scintillation counter.
The standard and test sample dilutions were made in an assay buffer containing either ethanol or DMSO at a final concentration of 1%.
The percent (%) displacement by a test ligand was calculated by comparing the specific bound values.

In another data set the target is hCB2 (Homo sapiens, UniProt P34972). In words: In vitro binding assay using hCB2-CHO membranes, [3H]-CP-55,940 displacement (Protocol IV). The settings on record: 1 h, read-out: % Displacement Protocol IV. The arrangement: expressed in transfected cells; host or cells: CHO (hCB2-CHO, generated in-house). The method, boiled down:
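Compounds were tested at a single 300 nM final concentration for displacing 0.75 nM [3H]-CP-55,940 from hCB2-CHO membranes (1 h, 30 °C, 50 mM Tris pH 7.4, 5 mM MgCl2, 1 mM EDTA, 0.1% BSA). Filter-bound radioactivity was counted, with 0.5 μM unlabelled CP-55,940 for nonspecific binding; results are % displacement.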

Setting [1] is: rat brain membrane, [3H]SR141716A displacement, read-out: % Displacement Protocol I.
[2] abbreviates: hCB2-CHO membranes, [3H]-CP-55,940 displacement.

Where two headings read alike, the source gives them in different places.

Sequence of hCB2 (P34972 whole entry): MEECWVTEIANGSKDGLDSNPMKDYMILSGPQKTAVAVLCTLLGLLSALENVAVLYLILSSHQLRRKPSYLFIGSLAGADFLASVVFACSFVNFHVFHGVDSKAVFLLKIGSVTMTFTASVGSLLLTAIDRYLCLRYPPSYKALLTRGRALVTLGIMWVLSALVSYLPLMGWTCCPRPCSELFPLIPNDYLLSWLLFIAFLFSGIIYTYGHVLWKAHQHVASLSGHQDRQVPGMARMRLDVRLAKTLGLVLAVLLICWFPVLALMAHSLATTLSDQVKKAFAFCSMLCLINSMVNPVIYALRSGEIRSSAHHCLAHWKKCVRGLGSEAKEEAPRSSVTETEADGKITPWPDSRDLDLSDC
Sequence of CB1 (P20272 whole entry): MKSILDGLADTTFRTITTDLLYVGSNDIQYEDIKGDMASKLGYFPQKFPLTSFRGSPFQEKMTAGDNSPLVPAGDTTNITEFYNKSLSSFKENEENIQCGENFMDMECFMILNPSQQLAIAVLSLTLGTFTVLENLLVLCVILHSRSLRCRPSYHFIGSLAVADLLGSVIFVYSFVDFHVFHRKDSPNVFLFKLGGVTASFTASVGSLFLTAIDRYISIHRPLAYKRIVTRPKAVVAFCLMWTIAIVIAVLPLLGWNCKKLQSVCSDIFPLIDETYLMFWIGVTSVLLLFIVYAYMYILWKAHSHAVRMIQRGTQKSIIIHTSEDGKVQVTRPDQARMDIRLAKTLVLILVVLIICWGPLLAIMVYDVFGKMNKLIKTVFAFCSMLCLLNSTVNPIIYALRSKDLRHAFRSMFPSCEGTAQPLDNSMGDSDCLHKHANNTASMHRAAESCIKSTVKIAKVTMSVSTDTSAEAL

Take `O=C(NC1CCCCC1)c1nn(-c2ccccc2Br)c2c1C1CCC2C1` (stereo not drawn) [Example 271, N(3)-Cyclohexyl-1-(2-bromophenyl)-4,5,6,7-tetrahydro-1H-4,7-methano-indazole-3-carboxamide]: the melting point was found to be 178 °C. Further, the inhibition at CB1 (read-out: % Displacement Protocol I, rat brain membrane, [3H]SR141716A displacement) was found to be 11.7%. Besides, the inhibition at 0.3 µM at hCB2 came out at 46%.

The compound `O=C(NNc1ccccc1Br)c1nn(-c2ccc(Cl)cc2Cl)c2c1C1CC3CC(C1)CC2C3` [Example 176, N(7)-(2-Bromophenylamino)-5-(2,4-dichlorophenyl)-5,6-diazatetracyclo[7.3.1.1^3,11.0^4,8]tetradeca-4(8),6-diene-7-carboxamide] gave a melting point of 196 to 199 °C. Also, at CB1 (setting [1]), the inhibition stood at 65.6%. Moreover, on hCB2 (setting [2]), the inhibition at 0.3 µM was 30.5%.

With `O=C(NCc1ccccc1)c1nn(-c2ccc(Cl)cc2)c2c1C1CCC2C1` (stereo not drawn) [Example 220, N(3)-Benzyl-1-(4-chlorophenyl)-4,5,6,7-tetrahydro-1H-4,7-methano-indazole-3-carboxamide], the melting point was 112 to 115 °C. On CB1 (setting [1]), the inhibition turned out to be 29.5%. Besides, at hCB2 (setting [2]), the inhibition at 0.3 µM amounted to 25.3%.

Turning to `O=C(Nc1ccc(Cl)cc1)c1nn(-c2ccc(Cl)cc2)c2c1C1CCC2C1` (stereo not drawn) [Example 216, N(3)-(4-Chlorophenyl)-1-(4-chlorophenyl)-4,5,6,7-tetrahydro-1H-4,7-methano-indazole-3-carboxamide], the melting point was 182 to 184 °C. Moreover, at CB1 (setting [1]), the inhibition is 32.2%. At hCB2 (setting [2]), the inhibition at 0.3 µM was found to be 20.7%.

With `O=C(NNc1ccc(F)cc1)c1nn(-c2ccc(Cl)cc2)c2c1C1CCC2C1` (stereo not drawn) [Example 234, N(3)-[(4-Fluorophenyl)amino]-1-(4-chlorophenyl)-4,5,6,7-tetrahydro-1H-4,7-methano-indazole-3-carboxamide], the melting point is 212 °C. Also, at CB1 (setting [1]), the inhibition was found to be 36.3%. For the same compound, on hCB2 (setting [2]), the inhibition at 0.3 µM was found to be 10.6%.

The compound `O=C(NN1CCCCC1)c1nn(-c2ccccc2Cl)c2c1C1CCC2C1` (stereo not drawn) [Example 205, N(3)-Piperidino-1-(2-chlorophenyl)-4,5,6,7-tetrahydro-1H-4,7-methano-indazole-3-carboxamide] came in with a melting point of 232 °C. Also, the inhibition on CB1 (setting [1]) was -12.7%. In addition, the inhibition at 0.3 µM on hCB2 (setting [2]) is 15.9%.

For the compound `O=C(NN(c1ccc(Cl)cc1Cl)C1CCCCC1)c1nn(-c2ccc(Cl)cc2)c2c1C1CC3CC(C1)CC2C3` [Example 129, N(7)-(2,4-Dichlorophenyl-N′-cyclohexylamino)-5-(4-chlorophenyl)-5,6-diazatetracyclo[7.3.1.1^3,11.0^4,8]tetradeca-4(8),6-diene-7-carboxamide], the melting point fell in the range of 95 to 96 °C. Also, the inhibition on CB1 (setting [1]) stood at 65.2%. Also, the inhibition at 0.3 µM at hCB2 (setting [2]) worked out at 62.9%.

Take `O=C(NCc1ccc(Cl)cc1)c1nn(-c2ccc(Cl)cc2Cl)c2c1C1CCC2C1` (stereo not drawn) [Example 250, N(3)-(4-Chlorobenzyl)-1-(2,4-dichlorophenyl)-4,5,6,7-tetrahydro-1H-4,7-methano-indazole-3-carboxamide]: the melting point was in the range of 139 to 142 °C. Also, the inhibition on CB1 (setting [1]) worked out at 27.1%. Besides, on hCB2 (setting [2]), the inhibition at 0.3 µM worked out at 27.9%.

Take `O=C(NCc1ccccc1)c1nn(-c2ccccc2Br)c2c1C1CC3CC(C1)CC2C3` [Example 102, N(7)-Benzyl-5-(2-bromophenyl)-5,6-diazatetracyclo[7.3.1.1^3,11.0^4,8]tetradeca-4(8),6-diene-7-carboxamide]: the melting point is 20 °C. The inhibition at CB1 (setting [1]) is 27.3%. At hCB2 (setting [2]), the inhibition at 0.3 µM is 0.74%.

`O=C(NN1CCOCC1)c1nn(-c2ccc(Cl)cc2)c2c1C1CC3CC(C1)CC2C3` [Example 103, N(7)-Morpholino-5-(4-chlorophenyl)-5,6-diazatetracyclo[7.3.1.1^3,11.0^4,8]tetradeca-4(8),6-diene-7-carboxamide] registered a melting point of 220 °C. The inhibition on CB1 (setting [1]) was determined as 22.2%. For the same compound, on hCB2 (setting [2]), the inhibition at 0.3 µM is 6.99%.

Regarding `O=C(NNc1ccccc1)c1nn(-c2ccc(F)cc2)c2c1C1CCC2C1` (stereo not drawn) [Example 284, N(3)-Phenylamino-1-(4-fluorophenyl)-4,5,6,7-tetrahydro-1H-4,7-methano-indazole-3-carboxamide], the melting point stood at 163 °C. The inhibition on CB1 (setting [1]) is 13.7%. For the same compound, at hCB2 (setting [2]), the inhibition at 0.3 µM stood at 0.9%.

The compound `O=C(NNc1ccccc1)c1nn(-c2ccccc2Br)c2c1C1CCC2C1` (stereo not drawn) [Example 273, N(3)-Phenylamino-1-(2-bromophenyl)-4,5,6,7-tetrahydro-1H-4,7-methano-indazole-3-carboxamide] yielded a melting point of 219 °C. Besides, the inhibition at CB1 (setting [1]) is -5.9%. In addition, the inhibition at 0.3 µM at hCB2 (setting [2]) came out at 26.2%.

Compound `O=C(NNc1ccccc1F)c1nn(-c2ccc(Cl)cc2)c2c1C1CCC2C1` (stereo not drawn) [Example 232, N(3)-[(2-Fluorophenyl)amino]-1-(4-chlorophenyl)-4,5,6,7-tetrahydro-1H-4,7-methano-indazole-3-carboxamide] came in with a melting point of 91 °C. For the same compound, the inhibition on CB1 (setting [1]) came out at 49.7%. In addition, the inhibition at 0.3 µM at hCB2 (setting [2]) is 13.8%.

Regarding `O=C(NNc1ccc(Cl)cc1)c1nn(-c2ccc(Cl)cc2Cl)c2c1C1CCC2C1` (stereo not drawn) [Example 259, N(3)-[(4-Chlorophenyl)amino]-1-(2,4-dichlorophenyl)-4,5,6,7-tetrahydro-1H-4,7-methano-indazole-3-carboxamide], the melting point was 141 to 144 °C. Besides, the inhibition at CB1 (setting [1]) was 18.3%. Also, the inhibition at 0.3 µM at hCB2 (setting [2]) amounted to 33.3%.

On to `O=C(NCc1ccc(Cl)cc1)c1nn(-c2ccc(Cl)cc2)c2c1C1CCC2C1` (stereo not drawn) [Example 222, N(3)-(4-Chlorobenzyl)-1-(4-chlorophenyl)-4,5,6,7-tetrahydro-1H-4,7-methano-indazole-3-carboxamide], for which the melting point was in the range of 157 to 160 °C. Also, the inhibition at CB1 (setting [1]) was found to be 39.4%. Besides, the inhibition at 0.3 µM at hCB2 (setting [2]) is 15.7%.

Take `O=C(Nn1cnnc1)c1nn(-c2ccc(Cl)cc2Cl)c2c1C1CCC2C1` (stereo not drawn) [Example 240, N(3)-(4H-1,2,4-triazol-4-yl)-1-(2,4-dichlorophenyl)-4,5,6,7-tetrahydro-1H-4,7-methano-indazole-3-carboxamide]: the melting point is 231 to 233 °C. Also, at CB1 (setting [1]), the inhibition stood at 1.5%. On hCB2 (setting [2]), the inhibition at 0.3 µM was determined as 7.98%.

With `O=C(NCc1ccccc1)c1nn(-c2ccc(Br)cc2)c2c1C1CCC2C1` (stereo not drawn) [Example 276, N(3)-Benzyl-1-(4-bromophenyl)-4,5,6,7-tetrahydro-1H-4,7-methano-indazole-3-carboxamide], the melting point turned out to be 89 °C. The inhibition on CB1 (setting [1]) was determined as 25.3%. Besides, the inhibition at 0.3 µM at hCB2 (setting [2]) worked out at 14.1%.

`O=C(NN1CCCCC1)c1nn(-c2ccc(Cl)cc2)c2c1C1CCC2C1` (stereo not drawn) [Example 209, N(3)-Piperidino-1-(4-chlorophenyl)-4,5,6,7-tetrahydro-1H-4,7-methano-indazole-3-carboxamide] displayed a melting point of 78 to 81 °C. Moreover, the inhibition at CB1 (setting [1]) was determined as 23.5%. Further, on hCB2 (setting [2]), the inhibition at 0.3 µM was found to be 50.5%.

Regarding `Cc1ccc(-n2nc(C(=O)NNc3ccc(Cl)cc3Cl)c3c2C2CC4CC(CC3C4)C2)cc1` [Example 161, N(7)-(2,4-Dichlorophenylamino)-5-(4-methylphenyl)-5,6-diazatetracyclo[7.3.1.1^3,11.0^4,8]tetradeca-4(8),6-diene-7-carboxamide], the melting point was 208 to 215 °C. In addition, at CB1 (setting [1]), the inhibition turned out to be 27.9%. At hCB2 (setting [2]), the inhibition at 0.3 µM turned out to be 39.4%.
